Reference: ChEMBL document CHEMBL4196216, “Dinghupeptins A-D, Chymotrypsin Inhibitory Cyclodepsipeptides Produced by a Soil-Derived Streptomyces” (J Nat Prod, 2018)
The source made the active and inactive calls. The rule behind the calls is not given here. Numbered stars: 1 amine (or outer) side, 2 acyl side, 3 side chain; on linkers, the order of the positions; unused ones are H or OH. Bridge positions count the residues as written; N and C are the ends. Square brackets hold non-standard residues; d marks the D form. Peptide text beside a SMILES is read from it. * marks the point of attachment. X1 = CO[C@@H]1CC[C@@H](C(=O)[*:2])N1[*:1]; NMeY = CN[C@@H](Cc1ccc(O)cc1)C(=O)O; Tigloyl = C/C=C(\C)C(=O)*; NHCH2CH2OH = OCCN*

Tests used:
[1] = system: MCF7; experiment: Cytotoxicity against human MCF7 cells after 72 hrs by MTT assay; assay type: functional, cell-based
[2] = system: HeLa; experiment: Cytotoxicity against human HeLa cells after 72 hrs by MTT assay; assay type: functional, cell-based
[3] = system: MCF7; experiment: Growth inhibition of human MCF7 cells up to 50 uM after 72 hrs by MTT assay; assay type: functional
[4] = target: Pancreatic elastase (Sus scrofa) (UniProt P08419+P00772); experiment: Inhibition of porcine pancreas elastase up to 100 uM using N-succinyl-Ala-Ala-Ala-p-nitroanilide as substrate incubated for 15 mins followed by substrate addition measured every 30 secs; assay type: protein assay
[5] = target: Trypsin (Sus scrofa) (UniProt P00761); experiment: Inhibition of porcine pancreas trypsin up to 100 uM using N-alpha-benzoyl-DL-Arg-p-nitroanilide hydrochloride as substrate incubated for 15 mins followed by substrate addition measured every 30 secs
[6] = system: A549; experiment: Growth inhibition of human A549 cells up to 50 uM after 72 hrs by MTT assay; assay type: functional
[7] = system: HeLa; experiment: Growth inhibition of human HeLa cells up to 50 uM after 72 hrs by MTT assay; assay type: functional
[8] = system: A549; experiment: Cytotoxicity against human A549 cells after 72 hrs by MTT assay; assay type: functional, cell-based
[9] = target: Chymotrypsinogen A (Bos taurus) (UniProt P00766); experiment: Inhibition of bovine pancreas alpha-chymotrypsin up to 100 uM using N-succinyl-Gly-Gly-Phe-p-nitroanilide as substrate incubated for 15 mins followed by substrate addition measured every 30 secs
[10] = target: T1, Chymotrypsinogen A (Bos taurus, UniProt P00766); experiment: Inhibition of bovine pancreas alpha-chymotrypsin using N-succinyl-Gly-Gly-Phe-p-nitroanilide as substrate incubated for 15 mins followed by substrate addition measured every 30 secs
[11] = target: T1, Chymotrypsinogen A; experiment: Competitive inhibition of bovine pancreas alpha-chymotrypsin using N-succinyl-Gly-Gly-Phe-p-nitroanilide as substrate incubated for 15 mins followed by substrate addition measured every 30 secs by double-reciprocal Lineweaver-Burk plot analysis
[12] = target: Chymotrypsinogen A (Bos taurus) (UniProt P00766); experiment: Competitive inhibition of bovine pancreas alpha-chymotrypsin using N-succinyl-Gly-Gly-Phe-p-nitroanilide as substrate incubated for 15 mins followed by substrate addition measured every 30 secs by Dixon plot analysis

Sequence of Trypsin (Sus scrofa) (P00761 whole entry): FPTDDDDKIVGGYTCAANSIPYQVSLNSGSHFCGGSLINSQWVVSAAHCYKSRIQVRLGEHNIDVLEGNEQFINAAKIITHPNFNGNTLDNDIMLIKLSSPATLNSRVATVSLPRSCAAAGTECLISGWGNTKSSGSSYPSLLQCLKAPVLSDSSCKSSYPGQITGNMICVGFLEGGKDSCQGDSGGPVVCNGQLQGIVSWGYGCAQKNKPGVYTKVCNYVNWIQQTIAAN

SMILES: C/C=C(\C)C(=O)N[C@@H](CCC(N)=O)C(=O)N[C@@H]1C(=O)N[C@@H](CCC(=O)NCCO)C(=O)N2CCC[C@H]2C(=O)N[C@@H](Cc2ccccc2)C(=O)N(C)[C@@H](Cc2ccc(O)cc2)C(=O)N[C@@H](C)C(=O)O[C@@H]1C (Tigloyl-QTE(NHCH2CH2OH)PF[NMeY]A; ester 2-C)
- Activity [1]: inactive
- Activity [2]: inactive
- growth inhibition (GI) [3]: <30%
- inhibition [4]: inactive
- inhibition [5]: inactive
- growth inhibition (GI) [6]: <30%
- growth inhibition (GI) [7]: <30%
- Activity [8]: inactive
- inhibition [9]: inactive

SMILES: C/C=C(\C)C(=O)N[C@@H](CCC(N)=O)C(=O)N[C@@H]1C(=O)N[C@@H](CCC(=O)NCCO)C(=O)N[C@H]2CC[C@@H](OC)N(C2=O)[C@@H](Cc2ccccc2)C(=O)N(C)[C@@H](Cc2ccc(O)cc2)C(=O)N[C@@H](C)C(=O)O[C@@H]1C
- IC50 [10]: 1100 nM
- Ki [11]: 630 nM
- Activity [1]: inactive
- Activity [2]: inactive
- growth inhibition (GI) [3]: <30%
- inhibition [4]: inactive
- inhibition [5]: inactive
- growth inhibition (GI) [6]: <30%
- growth inhibition (GI) [7]: <30%
- Activity [8]: inactive
- inhibition [12]: Active

SMILES: C/C=C(\C)C(=O)N[C@@H](CCC(N)=O)C(=O)N[C@@H]1C(=O)N[C@@H](CCC(=O)NCCO)C(=O)N2[C@H](OC)CC[C@H]2C(=O)N[C@@H](Cc2ccccc2)C(=O)N(C)[C@@H](Cc2ccc(O)cc2)C(=O)N[C@@H](C)C(=O)O[C@@H]1C (Tigloyl-QTE(NHCH2CH2OH)[X1]F[NMeY]A; ester 2-C)
- IC50 [10]: 23100 nM
- Activity [1]: inactive
- Activity [2]: inactive
- growth inhibition (GI) [3]: <30%
- inhibition [4]: inactive
- inhibition [5]: inactive
- growth inhibition (GI) [6]: <30%
- growth inhibition (GI) [7]: <30%
- Activity [8]: inactive

SMILES: C/C=C(\C)C(=O)N[C@@H](CCC(N)=O)C(=O)N[C@@H]1C(=O)N[C@@H](CCC(=O)NCCO)C(=O)N[C@H]2CC[C@@H](O)N(C2=O)[C@@H](Cc2ccccc2)C(=O)N(C)[C@@H](Cc2ccc(O)cc2)C(=O)N[C@@H](C)C(=O)O[C@@H]1C
- IC50 [10]: 2100 nM
- Activity [1]: inactive
- Activity [2]: inactive
- growth inhibition (GI) [3]: <30%
- inhibition [4]: inactive
- inhibition [5]: inactive
- growth inhibition (GI) [6]: <30%
- growth inhibition (GI) [7]: <30%
- Activity [8]: inactive
